Columns and labels:
[1] = tested on: U2OS/PD-L1 cells and Jurkat-PD-1-SHP cells; test: Src homology region 2 domain-containing phosphatase (SHP) assay; format: cell-based; settings: Homo sapiens, U2OS; PathHunter chemiluminescence, 2 hours
Outline: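 U2OS/PD-L1 cells and Jurkat-PD-1-SHP cells, 5000 each, were co-incubated with compound for 2 h at 37 °C in RPMI with 1% FBS. PathHunter enzyme-fragment complementation chemiluminescence reported PD-1/SHP recruitment. IC50 was fitted from percent of DMSO-control activity versus log concentration.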

[2] = In vivo pharmacokinetics in rats; parameters: species or system Sprague Dawley rats; settings: rat, cassette dosing; for clearance / half-life / Vd / Cmax / AUC(0-inf): male, Sprague-Dawley, plasma; for clearance / half-life / Vd: 1.0 mg/kg IV; for Vd: read-out: Vss; for Cmax / AUC(0-inf) / F: 3.0 mg/kg PO; for AUC(0-inf): read-out: AUC0-inf
Method: (§1) For in vivo pharmacokinetic experiments, test compounds were administered to male Sprague Dawley rats or male and female Cynomolgus monkeys intravenously or via oral gavage. For intravenous (IV) dosing, test compounds were dosed at 0.5 to 1 mg/kg using a formulation of 10% dimethylacetamide (DMAC) in acidified saline via IV bolus for rat and 5 min or 10 min IV infusion for monkey. For oral (PO) dosing, test compounds were dosed at 1.0 to 3.0 mg/kg using 5% DMAC in 0.5% methylcellulose in citrate buffer (pH 3.5). Blood samples were collected at predose and various time points up to 24 hours postdose. All blood samples were collected using EDTA as the anticoagulant and centrifuged to obtain plasma samples. The plasma concentrations of test compounds were determined by LC-MS methods. The measured plasma concentrations were used to calculate PK parameters by standard noncompartmental methods using Phoenix® WinNonlin software program (version 7.0, Pharsight Corporation).
(§2) In rats and monkeys, cassette dosing of test compounds were conducted to obtain preliminary PK parameters.

PD-L1 = PD-L1 (Homo sapiens (Human), UniProt Q9NZQ7); test: PD-L1 whole blood internalization assay; format: cell-based; settings: PD-L1 internalization in human whole blood, CD14+ cells, interferon γ, 24 hour
Chain of PD-L1 (Q9NZQ7 19-290): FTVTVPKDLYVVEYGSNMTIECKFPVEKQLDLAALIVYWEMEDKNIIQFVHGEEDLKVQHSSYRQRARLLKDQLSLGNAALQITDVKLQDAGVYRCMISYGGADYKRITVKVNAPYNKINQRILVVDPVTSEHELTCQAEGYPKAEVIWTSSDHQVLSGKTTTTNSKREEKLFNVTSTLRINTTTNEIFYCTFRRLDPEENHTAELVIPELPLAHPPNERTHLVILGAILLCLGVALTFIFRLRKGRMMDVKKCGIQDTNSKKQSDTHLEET

[3] = tested on: PD-L1 aAPC/CHO-K1 cells and Jurkat-PD-1-NFAT effector cells; test: Nuclear factor of activated T-cells (NFAT) assay; format: cell-based; settings: Cricetulus griseus, CHO-K1; luminescence, 24 hours
Outline: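 PD-L1 aAPC/CHO-K1 cells (8000/well) co-cultured with Jurkat-PD-1-NFAT effector cells (10,000/well) plus compound in RPMI/1% FBS, 0.4% DMSO, top concentration 2 μM, 24 h at 37 °C. NFAT luciferase read by Bio-Glo luminescence. Fold induction normalized to DMSO; maximum induction relative to control compound; EC50 from curve fit.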

[4] = In vivo pharmacokinetics in monkeys; settings: cynomolgus monkey, cassette dosing; for clearance / half-life / Vd / AUC(0-inf) / Cmax: both sexes, plasma; for clearance / half-life / Vd: 1.0 mg/kg IV; for Vd: read-out: Vss; for AUC(0-inf) / Cmax / F: 3.0 mg/kg PO
Method: as §1, §2

SMILES | IC50 [1] | clearance [2] | half-life [2] | Vd [2] | Cmax [2] | AUC(0-inf) [2] | F [2] | IC50 (PD-L1) | EC50 [3] | clearance [4] | half-life [4] | Vd [4] | AUC(0-inf) [4] | Cmax [4] | F [4]
Cc1c(Nc2nc(C(F)F)nc3cc(CN4CC[C@@H](O)C4)cnc23)cccc1-c1cccc(NC(=O)c2nc3c(n2C)CCN(CCC24CCC(C(=O)O)(CC2)C4)C3)c1Cl [Example 1, (R)-4-(2-(2-((2-chloro-3′-((2-(difluoromethyl)-7-((3-hydroxypyrrolidin-1-yl)methyl)pyrido[3,2-d]pyrimidin-4-yl)amino)-2′-methyl-[1,1′-biphenyl]-3-yl)carbamoyl)-1-methyl-1,4,6,7-tetrahydro-5H-imidazo[4,5-c]pyridin-5-yl)ethyl)bicyclo[2.2.1]heptane-1-carboxylic Acid] | 3 nM | 6.15 mL/min/kg | 4.4 h | 1.75 L/kg | 166 nM | 1.4 µM·h | 14% | 7.9 nM | 2 nM | 4.25 mL/min/kg | 6.35 h | 1.01 L/kg | 8.24 µM·h | 794 nM | 59%
Cc1c(Nc2nc(C(F)F)nc3cc(CN4CC[C@@](C)(O)C4)cnc23)cccc1-c1cccc(NC(=O)c2nc3c(n2C)CCN(CCC24CCC(C(=O)O)(CC2)C4)C3)c1Cl [Example 2, (R)-4-(2-(2-((2-chloro-3′-((2-(difluoromethyl)-7-((3-hydroxy-3-methylpyrrolidin-1-yl)methyl)pyrido[3,2-d]pyrimidin-4-yl)amino)-2′-methyl-[1,1′-biphenyl]-3-yl)carbamoyl)-1-methyl-1,4,6,7-tetrahydro-5H-imidazo[4,5-c]pyridin-5-yl)ethyl)bicyclo[2.2.1]heptane-1-carboxylic Acid] | 3.9 nM | 7.85 mL/min/kg | 4.4 h | 2.63 L/kg | 111 nM | 1.07 µM·h | 14% | 8 nM | 4 nM | 4.78 mL/min/kg | 6.23 h | 1.36 L/kg | 6.84 µM·h | 579 nM | 57%
Cc1c(NC(=O)c2nc3c(n2C)CCN(CCC24CCC(C(=O)O)(CC2)C4)C3)cccc1-c1cccc(Nc2nc(C(F)F)nc3cc(CN4CC[C@@H](O)C4)cnc23)c1C [Example 5, (R)-4-(2-(2-((3′-((2-(difluoromethyl)-7-((3-hydroxypyrrolidin-1-yl)methyl)pyrido[3,2-d]pyrimidin-4-yl)amino)-2,2′-dimethyl-[1,1′-biphenyl]-3-yl)carbamoyl)-1-methyl-1,4,6,7-tetrahydro-5H-imidazo[4,5-c]pyridin-5-yl)ethyl)bicyclo[2.2.1]heptane-1-carboxylic Acid] | 4 nM | 6.93 mL/min/kg | 3.9 h | 1.63 L/kg | 241 nM | 1.65 µM·h | 19% | 60 nM | 9.2 nM | 4.93 mL/min/kg | 8.48 h | 1.14 L/kg | 11.1 µM·h | 1300 nM | 89%

— patent publication US11401279B2, “Pyrido[3,2-d]pyrimidine compounds as immunomodulators” (Incyte Corporation, priority 2019, dated 2022)
